Measurements as given in patent US5359138A (Zaidan Hojin Biseibutsu Kagaku Kenkyu KaI, priority 1989, dated 1994).
Entries after “also recorded” stand apart in the source; their conditions may differ. Starred links: 1 amine or outer side, 2 acyl side, 3 side chain; linkers in the order of their positions; H or OH if unused. Non-standard residues stand in square brackets, D forms with d. Residues, ends and D or L forms follow the SMILES beside them. ξ: configuration not given here. *: point of attachment. ξ(3-Amino-2-oxopentanoyl) = CCC(N[*:1])C(=O)C(=O)[*:2]; Abu(ψCOCO) = CC[C@H](N[*:1])C(=O)C(=O)[*:2]; Butanoyl(4-Ph) = O=C(CCCc1ccccc1)*; Cbz = O=C(OCc1ccccc1)*; OBn = c1ccc(CO*)cc1

Tests used:
cathepsin B = cathepsin B (Homo sapiens, UniProt P07858); experiment: Cathepsin B inhibition activity (method by Knight); format: biochemical
Procedure: The elastase inhibition activity was determined according to a method by Mumford, R. A. et al (J. Biol. Chem., 225, 2227 (1980)). The cathepsin B inhibition activity was determined according to a method by Knight, C. G. (Biochem. J., 189, 447-453 (1980)).

prolylendopeptidase = molecular target: T1, prolylendopeptidase (Sus scrofa, UniProt P23687); experiment: Determination of anti-prolylendopeptidase activity; format: biochemical, pig; details: for PPCE = Propylendopeptidase inhibition activity, IC50: pig kidney enzyme, substrate Z-Gly-Pro-beta-naphthylamide, 37° C., 30 minutes, pH 7.8
T1 construct: a pig kidney sample was subjected to a fractionation operation with ammonium sulfate; from tissue; host or cells: pig kidney
T1 sequence (P23687 whole entry): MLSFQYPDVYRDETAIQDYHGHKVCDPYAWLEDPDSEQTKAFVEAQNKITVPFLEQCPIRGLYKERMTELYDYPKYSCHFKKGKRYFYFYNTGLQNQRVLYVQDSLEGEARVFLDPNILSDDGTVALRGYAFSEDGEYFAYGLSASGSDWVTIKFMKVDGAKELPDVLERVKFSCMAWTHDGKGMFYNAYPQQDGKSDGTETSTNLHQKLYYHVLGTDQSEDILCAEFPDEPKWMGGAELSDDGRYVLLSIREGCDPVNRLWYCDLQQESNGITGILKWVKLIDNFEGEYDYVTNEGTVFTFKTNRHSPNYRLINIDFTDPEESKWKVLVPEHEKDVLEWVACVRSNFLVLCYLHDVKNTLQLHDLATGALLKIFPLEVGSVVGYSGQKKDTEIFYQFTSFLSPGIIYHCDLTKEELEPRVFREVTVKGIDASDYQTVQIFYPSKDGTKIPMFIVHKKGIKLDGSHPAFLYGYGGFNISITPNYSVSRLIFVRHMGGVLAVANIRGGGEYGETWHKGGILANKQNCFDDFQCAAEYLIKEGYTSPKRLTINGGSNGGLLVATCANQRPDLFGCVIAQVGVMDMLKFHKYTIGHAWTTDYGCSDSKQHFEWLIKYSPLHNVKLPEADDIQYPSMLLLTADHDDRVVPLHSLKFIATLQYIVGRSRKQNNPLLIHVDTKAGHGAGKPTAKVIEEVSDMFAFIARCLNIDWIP
Procedure: The determination of anti-prolylendopeptidase activity was conducted by a modified method based on the method by Yoshimoto et al (Biochim. Biophys. Acta, vol. 569, pages 184-192 (1979)).
A test tube was charged with a solution mixture consisting of (a) 0.2 ml of a solution of 0.5 mM N-benzyloxycarbonyl-L-glycyl-L-prolyl-beta-naphthylamide in 40% dioxane; (b) 0.5 ml of a 0.05M Tris-HCl buffer solution (pH 7.8); and (c) 0.25 ml of an aqueous solution containing the test material. The solution mixture was heated to 37° C. for 3 minutes, and admixed with 0.05 ml of a prolylendopeptidase solution to effect a reaction at 37° C. for 30 minutes. The prolylendopeptidase employed was that which had been obtained according to a modified method based on the enzyme purification method by Koida, Walter et al. (J. Biol. Chem. Vol. 251, pages 7593-7599 (1976), wherein a pig kidney sample was subjected to a fractionation operation with ammonium sulfate, and wherein a purification was effected by a column chromatography employing a DEAE-Sephadex A-50 column.
After the completion of the reaction, the reaction mixture was admixed with 1 ml of a 1M sodium acetate buffer solution containing 10% of Tween-20 and 0.1% of Fast Garnet GBC salt. The reaction mixture was allowed to stand at room temperature for 15 minutes, and then measured for the light absorption at 525 nm (a). At the same time, a control sample, which was free of the test compounds and contained only the buffer solution, was measured for the light absorption (b).
The prolylendopeptidase inhibition activity was determined by employing the formula: […]

Solubility of poststatin = format: physicochemical; details: solvents as named; listed as poststatin
mice = experiment: Toxicity, LD50 (i.v.) in mice; format: in vivo
Procedure: The compounds according to the invention have a low toxicity. In the case of mice, LD50 (i.v.) of poststatin is at least 200 mg/kg. Therefore, it can be expected that the compounds according to the invention will be useful, for instance, as a drug for treating amnesia and autoimmune diseases including systemic erythematosus and the like.

Row | Structure (SMILES) | CatB = Cathepsin B inhibition activity, IC50 (cathepsin B) | PPCE = Propylendopeptidase inhibition activity, IC50 (prolylendopeptidase) | IC50 (cathepsin B; read-out: CatB = Cathepsin B inhibition activity, IC50) | IC50 (prolylendopeptidase) | Solubility (Solubility of poststatin) | LD50 (i.v.) (mice)
1 | CCC(NC(=O)[C@@H](NC(=O)OC(C)(C)C)C(C)C)C(=O)C(=O)N[C@H](CC(C)C)C(=O)OC(C)(C)C (mixture of isomers) [Compound 5, BOC-L-valyl-(RS)-3-amino-2-oxopentanoyl-D-leucyl t-butyl ester] | 2.2 µg/mL | 0.04 µg/mL |  |  |  | 
2 | CC[C@H](NC(=O)[C@@H](NC(=O)[C@@H](NC(=O)OCc1ccccc1)C(C)C)C(C)C)C(=O)C(=O)N[C@H](CC(C)C)C(=O)N[C@H](C(=O)OCc1ccccc1)C(C)C [Compound 2, Z-L-valyl-L-valyl-(3S)-3-amino-2-oxo-pentanoyl-D-leucyl-L-valine benzyl ester] (Cbz-VV[Abu(ψCOCO)][dL]V-OBn) | 100 µg/mL | 1 µg/mL |  |  |  | 
3 | CCC(NC(=O)[C@H](Cc1ccccc1)NC(=O)OCc1ccccc1)C(=O)C(=O)N[C@H](CC(C)C)C(=O)N[C@H](C(=O)O)C(C)C (mixture of isomers) [Compound 4, Z-L-phenylalanyl-(RS)-3-amino-2-oxopentanoyl-D-leucyl-L-valine] | 0.64 µg/mL | 0.007 µg/mL |  |  |  | 
4 | CCC(NC(=O)[C@H](Cc1ccccc1)NC(=O)OCc1ccccc1)C(=O)C(=O)N[C@H](CC(C)C)C(=O)N[C@H](C(=O)OC(C)(C)C)C(C)C (mixture of isomers) [Compound 3, Z-L-phenylalanyl-(RS)-3-amino-2-oxopentanoyl-D-leucyl-L-valine t-butyl ester] | > 100 µg/mL | 0.11 µg/mL |  |  |  | 
5 | CCC(NC(=O)[C@@H]1CCCN1C(=O)[C@@H](NC(=O)CCCc1ccccc1)C(C)C)C(=O)C(=O)N[C@H](CC(C)C)C(=O)N[C@H](C(=O)O)C(C)C (stereo partly drawn) [Compound 7, phenylbutanoyl-L-valyl-L-propyl-3-amino-2-oxopentanoyl-D-leucyl-L-valine] ({Butanoyl(4-Ph)}-VP[ξ(3-Amino-2-oxopentanoyl)][dL]V-OH) | 72 µg/mL | 0.17 µg/mL |  |  |  | 
6 | CCC(NC(=O)[C@@H]1CCCN1C(=O)[C@@H](N)C(C)C)C(=O)C(=O)N[C@H](CC(C)C)C(=O)N[C@H](C(=O)O)C(C)C (stereo partly shown) [Compound 6] |  |  | > 185000 nM | 556 nM |  | 
7 | CC[C@H](NC(=O)[C@@H](NC(=O)[C@@H](N)C(C)C)C(C)C)C(=O)C(=O)N[C@H](CC(C)C)C(=O)N[C@H](C(=O)O)C(C)C [Compound 1, L-valyl-L-valyl-(3S)-3-amino-2-oxo-pentanoyl-D-leucyl-L-valyl] (H-VV[Abu(ψCOCO)][dL]V-OH) | 2.1 µg/mL | 0.03 µg/mL |  |  | soluble in water, methanol, and dimethyl sulfoxide; also recorded: insoluble in acetone, ethyl acetate, chloroform and hexane | at least 200 mg/kg
